In patent US20250212880A1, “COMPOSITION FOR COATING PLANT SEED” (priority 2022, published 2025):

Key:
Assay type in all cases: in vivo
Zea mays [1] = assay: Field test of Zea mays (ear yield); conditions: field cultivation, Belgium; seed coating 0.25 g tryptophan and/or 1000 g allantoin per tonne of seeds
Protocol: In the same manner as in Example 1, Zea mays seeds coated with 0.25 g of tryptophan per tonne of seeds, Zea mays seeds coated with 1000 g of allantoin per tonne of seeds, and Zea mays seeds coated with 0.25 g of tryptophan and 1000 g of allantoin per tonne of seeds were prepared. As a control group, seeds without coating were prepared.
• Location: the Wilderen MAR field, the Kingdom of Belgium • Variety: LIKEiT • Date of seeding: Apr. 27, 2020 • Date of harvesting: Oct. 12, 2020
Cultivation was performed in accordance with the conventional fertilization management technique and pest management technique, and the yield was inspected. • Inspection of yield: 120 strains/group; the number of repetitions: 4

wheat [2] = assay: Cultivation of wheat from coated seeds under non-stress conditions; conditions: 2 weeks after seeding, seed coating Trp 0.045-9 g and/or allantoin 50 g per tonne of seeds
Protocol: (§1) Wheat seeds (100 g, the variety: Yumechikara) were coated with 800 μL of a coating solution comprising tryptophan, allantoin, polyvinyl alcohol, and a coloring dye in water using a coater (SATEC). Coating was performed using either or both of tryptophan in an amount of 0 g, 0.045 g, 0.45 g, 4.5 g, or 9 g and allantoin in an amount of 0 g or 50 g per tonne of seeds.
(§2) Culture soil was filled into 12-cm vinyl pots, and the coated wheat seeds were seeded at 4 grains/pot. After germination, a differently grown strain was thinned to retain 3 strains in a pot. Cultivation was performed in a glass greenhouse, and inspection was performed 2 weeks after seeding. The test was repeated 6 times, and the average was determined.
(§3) The measured fresh weight of the aboveground part of plants in groups each treated with different amounts of tryptophan and allantoin was indicated as the rate of change (%), relative to the fresh weight of the aboveground part of plants in the test group (control group) treated with a coating solution not comprising tryptophan or allantoin.

wheat [3] = assay: Cultivation of wheat from coated seeds under salt stress conditions; conditions: salt stress (NaCl 4.0 g/L soil), 2 weeks after seeding, seed coating Trp 0.045-9 g and/or allantoin 50 g per tonne of seeds
Protocol: as §1, with “(100 g;” for “(100 g,”
Culture soil comprising sodium chloride at 4.0 g/L of the soil was filled into 7.5-cm pots, and the coated wheat seeds were seeded at 1 grain/pot. Cultivation was performed in a glass greenhouse, and inspection was performed 16 days after seeding. The height and the fresh weight of the aboveground part were measured, and the density (the fresh weight of the aboveground part/the height) was determined. The test was repeated 9 times, and the average was determined.
The density of the test groups treated with different amounts of tryptophan and allantoin was indicated as the rate of change (%), relative to the density of the test group (control group) treated with a coating solution not comprising tryptophan or allantoin.

Zea mays [4] = assay: Cultivation of Zea mays from coated seeds under non-stress conditions; conditions: dent corn, 3 weeks (21 days) after seeding, seed coating Trp 0.045-0.45 g and/or allantoin 50 or 500 g per tonne of seeds
Protocol: Dent corn seeds (100 g; the variety: Snow-dent “Otoha”) were coated with 800 μL of a coating solution comprising tryptophan, allantoin, polyvinyl alcohol, and a coloring dye in water using a coater (SATEC). Coating was performed using either or both of tryptophan in an amount of 0 g, 0.045 g, 0.225 g, or 0.45 g and allantoin in an amount of 0 g, 50 g, or 500 g per tonne of seeds (MT).
as §2, with “dent corn” for “wheat”, “21 days” for “2 weeks”, “seeding. The height, the fresh weight of the aboveground part, and the dry weight of the underground part were measured, and the density (the fresh weight of the aboveground part/the height) was determined. […]” for “seeding.”
The fresh weight of the aboveground part, the density, and the dry weight of the underground part measured for groups each treated with different amounts of tryptophan and allantoin were indicated as the rates of changes (%), relative to the fresh weight of the aboveground part, the density, and the dry weight of the underground part of plants in the test group (control group) treated with a coating solution not comprising tryptophan or allantoin. […]

soybean [5] = assay: Cultivation of soybean from coated seeds under salt stress conditions; conditions: salt stress (NaCl 1.0 g/L soil), 3 weeks after seeding, seed coating Trp 0.045-5 g and/or allantoin 50 g per tonne of seeds
Protocol: (§4) Soybean seeds (100 g; the variety: Fukuyutaka) were coated with 800 μL of a coating solution comprising tryptophan, allantoin, polyvinyl alcohol, and a coloring dye in water using a coater (SATEC). Coating was performed using either or both of tryptophan in an amount of 0 g, 0.045 g, 0.225 g, 0.45 g, or 5 g and allantoin in an amount of 0 g or 50 g per tonne of seeds.
Culture soil comprising sodium chloride at 1.0 g/L of the soil was filled into 7.5-cm pots, and the coated soybean seeds were seeded at 1 grain/pot. Cultivation was performed in a glass greenhouse, and inspection was performed 3 weeks after seeding. The dry weight of the underground part was measured. The test was repeated 9 times, and the average was determined.

soybean [6] = assay: Cultivation of soybean from coated seeds under non-stress conditions; conditions: 3 weeks after seeding, seed coating Trp 0.225-5 g and/or allantoin 25 g per tonne of seeds
Protocol: as §4, with “g,” for “g, 0.045 g,”, “25” for “50”
as §2, with “coated soybean” for “coated wheat”, “performed 3” for “performed 2”
as §3

SMILES	ear yield relative to the control group (100%) (Zea mays [1])	rate of change in the fresh weight of the aboveground part relative to control group (wheat [2])	rate of change in the density relative to control group (wheat [3])	rate of change in the fresh weight of the aboveground part relative to control group (Zea mays [4])	rate of change in the dry weight of the underground part relative to control group (soybean [5])	rate of change in the fresh weight of the aboveground part relative to control group (soybean [6])
N[C@@H](Cc1c[nH]c2ccccc12)C(=O)O [tryptophan, L-tryptophan]	100.4%					
NC(=O)NC1NC(=O)NC1=O (stereo not shown) [allantoin, 5-ureidohydantoin]	100.4%	1%	3%	5%	2%	4%
